Where two headings read alike, the source gives them in different places. Values belong to the compound of their own block, whether it stands above or below them.
Legend:
Mycobacterium 607 [1] = details: cup test; standard value; cited from earlier work
ICR-JCL male mice = details: 10 mice, 10 mg./kg. i.v., 10 days
From the text: The mice were bred for 5 weeks after the final administration and were then dissected. The right and left lungs were observed by microscopic examination.

Mycobacterium 607 [2] = test: cup test, antimicrobial activity to Mycobacterium 607; assay type: cell-based
From the text: The endpoint of the hydrolysis reaction can be determined by a reaction in antimicrobial activity of the bleomycin substrate as measured by conventional cup tests using Mycobacterium 607, or by a change in the Rf value during thin layer chromatography.

HeLa (S3 bb cell line) = details: third day
From the text: wherein the inhibitory effect = [formula] Co: relative number of cell on the first day t3 : relative number of cell on the third day after the addition of a bleomycin (3 mcg/ml in final)
C3 : relative number of cell in negative control on the third day

solubility in solvents = assay type: physicochemical

Compound: Cc1c(N)nc([C@H](CC(N)=O)NC[C@H](N)C(N)=O)nc1C(=O)N[C@H](C(=O)N[C@H](C)[C@@H](O)[C@H](C)C(=O)N[C@H](C(=O)NCCc1nc(-c2nc(C(=O)NCCC[S+](C)C)cs2)cs1)[C@@H](C)O)[C@@H](O[C@@H]1O[C@@H](CO)[C@@H](O)[C@H](O)[C@@H]1O[C@H]1O[C@H](CO)[C@@H](O)[C@H](OC(N)=O)[C@@H]1O)c1c[nH]cn1.[Br-] [bleomycin A2, 3-dimethylsulfopropylamino-bleomycin]
antimicrobial activity, standard (Mycobacterium 607 [1]): 1000 μ/mg

Compound: Cc1c(N)nc([C@H](CC(N)=O)NC[C@H](N)C(N)=O)nc1C(=O)N[C@H](C(=O)N[C@H](C)[C@@H](O)[C@H](C)C(=O)N[C@H](C(=O)NCCc1nc(-c2nc(C(=O)NCCCCN=C(N)N)cs2)cs1)[C@@H](C)O)[C@@H](O[C@@H]1O[C@@H](CO)[C@@H](O)[C@H](O)[C@@H]1O[C@H]1O[C@H](CO)[C@@H](O)[C@H](OC(N)=O)[C@@H]1O)c1cnc[nH]1 [bleomycin B2, 4-guanidinobutylamino-bleomycin]
Inhibitory effect (cell culture of Yoshida; 0.625 mcg/ml): 8.6 | Inhibitory effect (cell culture of Yoshida; 1.25 mcg/ml): 34.0 | Inhibitory effect (cell culture of Yoshida; 2.5 mcg/ml): 56.0 | Inhibitory effect (cell culture of Yoshida; 5 mcg/ml): 74.9 | Total, mice with degree of fibrosis ++ (ICR-JCL male mice; Lung L): 1 | Total, mice with degree of fibrosis - (ICR-JCL male mice; Lung L): 5 | Total, mice with degree of fibrosis ± (ICR-JCL male mice; Lung L): 1 | Total, mice with degree of fibrosis ± (third Total column) (ICR-JCL male mice; Lung L): 3 | Total, mice with degree of fibrosis ++ (ICR-JCL male mice; Lung R): 0 | Total, mice with degree of fibrosis - (ICR-JCL male mice; Lung R): 4 | Total, mice with degree of fibrosis ± (ICR-JCL male mice; Lung R): 3 | Total, mice with degree of fibrosis ± (third Total column) (ICR-JCL male mice; Lung R): 3 | antimicrobial activity to Mycobacterium 607 (Mycobacterium 607 [2]): 3094 μ/mg | antimicrobial activity to Mycobacterium 607 (Mycobacterium 607 [2]; listed as bleomycin): 3015 μ/mg | Inhibitory effect (HeLa (S3 bb cell line); 1.5 mcg/ml.): 33 | Inhibitory effect (HeLa (S3 bb cell line); 3 mcg/ml.): 64

Compound: Cc1c(N)nc(C(CC(N)=O)NCC(N)C(N)=O)nc1C(=O)NC(C(=O)NC(C)C(O)C(C)C(=O)NC(C(=O)NCCc1nc(-c2nc(C(=O)O)cs2)cs1)C(C)O)C(OC1OC(CO)C(O)C(O)C1OC1OC(CO)C(O)C(OC(N)=O)C1O)c1cnc[nH]1 (centres unmarked) [bleomycinic acid]
antimicrobial activity to Mycobacterium 607 (Mycobacterium 607 [2]): 159 μ/mg

Compound: benzylamino-bleomycin
Inhibitory effect (cell culture of Yoshida; 0.625 mcg/ml): 11.1 | Inhibitory effect (cell culture of Yoshida; 1.25 mcg/ml): 28.2 | Inhibitory effect (cell culture of Yoshida; 2.5 mcg/ml): 55.4 | Inhibitory effect (cell culture of Yoshida; 5 mcg/ml): 83.5 | antimicrobial activity to Mycobacterium 607 (Mycobacterium 607 [2]): 3250 μ/mg | Inhibitory effect (HeLa (S3 bb cell line); 1.5 mcg/ml.): 38 | Inhibitory effect (HeLa (S3 bb cell line); 3 mcg/ml.): 73 | Inhibitory effect (HeLa (S3 bb cell line); 6 mcg/ml.): 92

solubility in ethanol, ethyl acetate, acetone and ether (solubility in solvents; ethanol, ethyl acetate, acetone, ether): insoluble | solubility in methanol, acetic acid, dimethylsulfoxide (solubility in solvents; methanol, acetic acid, dimethylsulfoxide): sparingly soluble | solubility in water (solubility in solvents; water): soluble
Compound: hydrochloride of bleomycinic acid
